Assay results as given in patent US20150258101A1 (Proximagen Limited, priority 2014, published 2015).

Molecular target: T1, purified recombinantly expressed human SSAO (Homo sapiens, UniProt Q16853)
T1 construct: made in house
T1 sequence (Q16853 1-763): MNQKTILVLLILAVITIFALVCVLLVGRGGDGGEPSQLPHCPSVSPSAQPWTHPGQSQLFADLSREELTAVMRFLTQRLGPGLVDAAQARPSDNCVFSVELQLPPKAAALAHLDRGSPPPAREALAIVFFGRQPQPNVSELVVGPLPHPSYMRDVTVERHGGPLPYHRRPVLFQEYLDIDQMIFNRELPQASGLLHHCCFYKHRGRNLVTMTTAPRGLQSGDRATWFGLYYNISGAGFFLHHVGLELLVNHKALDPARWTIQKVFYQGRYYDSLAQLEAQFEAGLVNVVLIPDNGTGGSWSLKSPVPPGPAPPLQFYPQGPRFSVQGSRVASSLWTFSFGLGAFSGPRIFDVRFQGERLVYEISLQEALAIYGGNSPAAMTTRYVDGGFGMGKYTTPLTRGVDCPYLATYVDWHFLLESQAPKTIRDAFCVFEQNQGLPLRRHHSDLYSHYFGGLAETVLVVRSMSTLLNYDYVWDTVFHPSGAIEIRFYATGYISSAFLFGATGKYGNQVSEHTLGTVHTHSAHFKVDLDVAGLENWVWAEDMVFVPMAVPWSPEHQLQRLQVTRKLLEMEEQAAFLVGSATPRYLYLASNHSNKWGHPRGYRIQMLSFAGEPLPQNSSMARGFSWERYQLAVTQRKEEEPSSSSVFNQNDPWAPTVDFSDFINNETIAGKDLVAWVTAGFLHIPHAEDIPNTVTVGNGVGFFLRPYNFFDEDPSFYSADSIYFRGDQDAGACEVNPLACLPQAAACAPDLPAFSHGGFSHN
Assay: SSAO enzyme inhibition assay (benzylamine substrate; hydrogen peroxide/HRP-coupled or 14C aldehyde detection)
Type: biochemical
Conditions: SSAO inhibitory activity, RT
Summary of the method: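 IC50 values came from a four-parameter logistic fit of % signal decrease versus DMSO control, with no-enzyme background subtracted. Two read-outs were used with human recombinant SSAO after ~15 min compound pre-incubation at RT. In the H2O2/HRP-Amplex read-out, enzyme was 1 ug/ml and benzylamine 100 uM (pH 7.4 phosphate), with resorufin fluorescence followed 1-2 h. In the 14C-benzaldehyde read-out (PBS), enzyme was 10 ug/ml and benzylamine 40 uM, run 1 h then acid-stopped.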

IC50 | Compound
200 to 1200 nM | Clc1ccc(-n2c(-c3ccncc3)nc3ccncc32)cc1 [Example 2, 4-[3-(4-Chlorophenyl)-3H-imidazo[4,5-c]pyridin-2-yl] pyridine]
50 to 200 nM | Clc1ccc(-n2c(-c3ccc(CN4CCOCC4)nc3)nc3ccncc32)cc1 [Example 3, 4-({5-[3-(4-Chlorophenyl)-3H-imidazo[4,5-c]pyridin-2-yl]pyridin-2-yl}methyl) morpholine]
< 50 nM | Clc1ccc(-n2c(-c3ccc(N4CCOCC4)nn3)nc3ccncc32)cc1 [Example 4, 4-{6-[3-(4-Chlorophenyl)-3H-imidazo[4,5-c]pyridin-2-yl]pyridazin-3-yl}morpholine]
200 to 1200 nM | Cn1ccc(-c2nc3ccncc3n2-c2ccc(F)cc2)cc1=O [Example 114, 4-[3-(4-Fluorophenyl)-3H-imidazo[4,5-c]pyridin-2-yl]-1-methyl-1,2-dihydropyridin-2-one]
< 50 nM | O=c1cc(-c2nc3ccncc3n2-c2ccc(F)cc2)ccn1C1CC1 [Example 115, 1-Cyclopropyl-4-[3-(4-fluorophenyl)-3H-imidazo[4,5-c]pyridin-2-yl]-1,2-dihydropyridin-2-one]
50 to 200 nM | O=c1cc(-c2nc3ccncc3n2-c2ccc(Cl)cc2F)ccn1C1CC1 [Example 116, 4-[3-(4-Chloro-2-fluorophenyl)-3H-imidazo[4,5-c]pyridin-2-yl]-1-cyclopropyl-1,2-dihydropyridin-2-one]
< 50 nM | Cc1ccc(-n2c(-c3cnc(N4C[C@@H](C)O[C@@H](C)C4)nc3)nc3ccncc32)cn1 [Example 118, (2R,6S)-2,6-Dimethyl-4-{5-[3-(6-methylpyridin-3-yl)-3H-imidazo[4,5-c]pyridin-2-yl]pyrimidin-2-yl}morpholine]
50 to 200 nM | Cc1ccc(-n2c(-c3cnc(NC4CCOCC4)nc3)nc3ccncc32)cc1 [Example 119, 5-[3-(4-Methylphenyl)-3H-imidazo[4,5-c]pyridin-2-yl]-N-(oxan-4-yl)pyrimidin-2-amine; bis(trifluoroacetic acid)]
< 50 nM | Clc1ccc(-n2c(-c3ccccn3)cc3ccncc32)cc1 [Example 121, 2-[1-(4-Chlorophenyl)-1H-pyrrolo[2,3-c]pyridin-2-yl]pyridine]
< 50 nM | Clc1ccc(-n2c(-c3cncnc3)cc3ccncc32)cc1 [Example 123]
< 50 nM | Clc1ccc(-n2c(-c3cnccn3)cc3ccncc32)cc1 [Example 124, 2-[1-(4-Chlorophenyl)-1H-pyrrolo[2,3-c]pyridin-2-yl]pyrazine]
200 to 1200 nM | CN1CCN(C(=O)c2ccc(-c3cc4ccncc4n3-c3ccc(Cl)cc3)cc2)CC1 [Example 125, 1-({4-[1-(4-Chlorophenyl)-1H-pyrrolo[2,3-c]pyridin-2-yl]phenyl}carbonyl)-4-methylpiperazine]
< 50 nM | Cc1nc(C)c(-c2cc3ccncc3n2-c2ccc(Cl)cc2)[nH]1 [Example 126, 5-[1-(4-Chlorophenyl)-1H-pyrrolo[2,3-c]pyridin-2-yl]-2,4-dimethyl-1H-imidazole]
< 50 nM | Cc1cc(N2CCOCC2)ncc1-c1cc2ccncc2n1-c1ccc(Cl)cc1 [Example 129, 4-{5-[1-(4-Chlorophenyl)-1H-pyrrolo[2,3-c]pyridin-2-yl]-4-methylpyridin-2-yl}morpholine; bis(trifluoroacetic acid)]
50 to 200 nM | Cc1ccc(-n2c(-c3cnc(N4CCOCC4)nc3)cc3ccncc32)cc1 [Example 130, 4-{5-[1-(4-Methylphenyl)-1H-pyrrolo[2,3-c]pyridin-2-yl]pyrimidin-2-yl}morpholine]
< 50 nM | Brc1ccc(-n2c(-c3cnc(N4CCOCC4)nc3)cc3ccncc32)cc1 [Example 133, 4-{5-[1-(4-Bromophenyl)-1H-pyrrolo[2,3-c]pyridin-2-yl]pyrimidin-2-yl}morpholine]

IC50 | Compound
< 50 nM | Cn1nccc1-c1cc2ccncc2n1-c1ccc(Cl)cc1 [Example 134, 5-[1-(4-Chlorophenyl)-1H-pyrrolo[2,3-c]pyridin-2-yl]-1-methyl-1H-pyrazole]
< 50 nM | Cn1cc(-c2cc3ccncc3n2-c2ccc(Cl)cc2)cn1 [Example 135, 4-[1-(4-Chlorophenyl)-1H-pyrrolo[2,3-c]pyridin-2-yl]-1-methyl-1H-pyrazole]
< 50 nM | Cn1cncc1-c1cc2ccncc2n1-c1ccc(Cl)cc1 [Example 136, 5-[1-(4-Chlorophenyl)-1H-pyrrolo[2,3-c]pyridin-2-yl]-1-methyl-1H-imidazole]
< 50 nM | CN(C)c1ncc(-c2cc3ccncc3n2-c2ccc(Cl)cc2)cn1 [Example 137, 5-[1-(4-Chlorophenyl)-1H-pyrrolo[2,3-c]pyridin-2-yl]-N,N-dimethylpyrimidin-2-amine; bis(trifluoroacetic acid)]
50 to 200 nM | Cc1cc(N)ncc1-c1cc2ccncc2n1-c1ccc(Cl)cc1 [Example 141, 5-[1-(4-Chlorophenyl)-1H-pyrrolo[2,3-c]pyridin-2-yl]-4-methylpyridin-2-amine; bis(trifluoroacetic acid)]
< 50 nM | Cn1ccc(-c2cc3ccncc3n2-c2ccc(Cl)cc2)cc1=O [Example 143, 4-[1-(4-Chlorophenyl)-1H-pyrrolo[2,3-c]pyridin-2-yl]-1-methyl-1,2-dihydropyridin-2-one]
50 to 200 nM | CCn1ccc(-c2cc3ccncc3n2-c2ccc(Cl)cc2)cc1=O [Example 144, 4-[1-(4-Chlorophenyl)-1H-pyrrolo[2,3-c]pyridin-2-yl]-1-ethyl-1,2-dihydropyridin-2-one]
< 50 nM | Cn1c(-c2cc3ccncc3n2-c2ccc(Cl)cc2)cccc1=O [Example 145, 6-[1-(4-Chlorophenyl)-1H-pyrrolo[2,3-c]pyridin-2-yl]-1-methyl-1,2-dihydropyridin-2-one]
50 to 200 nM | O=c1cc(-c2cc3ccncc3n2-c2ccc(Cl)cc2)cn[nH]1 [Example 146, 5-[1-(4-Chlorophenyl)-1H-pyrrolo[2,3-c]pyridin-2-yl]-2,3-dihydropyridazin-3-one]
< 50 nM | Fc1cncc(-c2cc3ccncc3n2-c2ccc(Cl)cc2)c1 [Example 148, 3-[1-(4-Chlorophenyl)-1H-pyrrolo[2,3-c]pyridin-2-yl]-5-fluoropyridine]
< 50 nM | Clc1ccc(-n2c(-c3cnc(NCC4CC4)nc3)cc3ccncc32)cc1 [Example 149, 5-[1-(4-Chlorophenyl)-1H-pyrrolo[2,3-c]pyridin-2-yl]-N-(cyclopropylmethyl)pyrimidin-2-amine]
50 to 200 nM | Clc1ccc(-n2c(-c3cncc(Cl)c3)cc3ccncc32)cc1 [Example 150, 3-Chloro-5-[1-(4-chlorophenyl)-1H-pyrrolo[2,3-c]pyridin-2-yl]pyridine]
50 to 200 nM | Clc1ccc(-n2c(-c3ccc(-n4cccn4)nc3)cc3ccncc32)cc1 [Example 151, 5-[1-(4-Chlorophenyl)-1H-pyrrolo[2,3-c]pyridin-2-yl]-2-(1H-pyrazol-1-yl)pyridine; bis(trifluoroacetic acid)]
< 50 nM | Cc1cnccc1-c1cc2ccncc2n1-c1ccc(Cl)cc1 [Example 154, 4-[1-(4-Chlorophenyl)-1H-pyrrolo[2,3-c]pyridin-2-yl]-3-methylpyridine]
200 to 1200 nM | O=c1cc(-c2cc3ccncc3n2-c2ccccc2)ccn1C1CC1 [Example 155, 1-Cyclopropyl-4-{1-phenyl-1H-pyrrolo[2,3-c]pyridin-2-yl}-1,2-dihydropyridin-2-one]

Molecular target: T2, human ether a go-go related gene (hERG) K+ channel (Homo sapiens, UniProt Q12809)
T2 construct: a Chinese Hamster Lung cell line stably expressing the full length hERG channel; expressed in transfected cells; host or cells: Chinese Hamster Lung cell line
Assay: hERG assay, IonWorks patch clamp electrophysiology
Type: cell-based
Conditions: Chinese Hamster Lung cell line stably expressing hERG; max assay concentration 11 uM
Experimental: Compounds of the invention were tested for inhibition of the human ether a go-go related gene (hERG) K^+ channel using IonWorks patch clamp electrophysiology. 8 Point concentration-response curves were generated on two occasions using 3-fold serial dilutions from the maximum assay concentration (11 uM). Electrophysiological recordings were made from a Chinese Hamster Lung cell line stably expressing the full length hERG channel. Single cell ion currents were measured in the perforated patch clamp configuration (100 ug/mL amphoterocin) at room temperature using an IonWorks Quattro instrument. The internal solution contained 140 mM KCl, 1 mM MgCl2, 1 mM EGTA and 20 mM HEPES and was buffered to pH 7.3. The external solution contained 138 mM NaCl, 2.7 mM KCl, 0.9 mM CaCl2, 0.5 mM MgCl2, 8 mM Na2HPO4 and 1.5 mM KH2PO4, and was buffered to pH 7.3. […] This sequence was repeated 5 times at a frequency of 0.25 Hz. Currents were measured from the tail step at the 5th pulse, and referenced to the holding current. Compounds were incubated for 6-7 min prior to a second measurement of the hERG signal using an identical pulse train. […] A control compound (quinidine) was used (see Table 20 below).

T2 sequence (Q12809 whole entry): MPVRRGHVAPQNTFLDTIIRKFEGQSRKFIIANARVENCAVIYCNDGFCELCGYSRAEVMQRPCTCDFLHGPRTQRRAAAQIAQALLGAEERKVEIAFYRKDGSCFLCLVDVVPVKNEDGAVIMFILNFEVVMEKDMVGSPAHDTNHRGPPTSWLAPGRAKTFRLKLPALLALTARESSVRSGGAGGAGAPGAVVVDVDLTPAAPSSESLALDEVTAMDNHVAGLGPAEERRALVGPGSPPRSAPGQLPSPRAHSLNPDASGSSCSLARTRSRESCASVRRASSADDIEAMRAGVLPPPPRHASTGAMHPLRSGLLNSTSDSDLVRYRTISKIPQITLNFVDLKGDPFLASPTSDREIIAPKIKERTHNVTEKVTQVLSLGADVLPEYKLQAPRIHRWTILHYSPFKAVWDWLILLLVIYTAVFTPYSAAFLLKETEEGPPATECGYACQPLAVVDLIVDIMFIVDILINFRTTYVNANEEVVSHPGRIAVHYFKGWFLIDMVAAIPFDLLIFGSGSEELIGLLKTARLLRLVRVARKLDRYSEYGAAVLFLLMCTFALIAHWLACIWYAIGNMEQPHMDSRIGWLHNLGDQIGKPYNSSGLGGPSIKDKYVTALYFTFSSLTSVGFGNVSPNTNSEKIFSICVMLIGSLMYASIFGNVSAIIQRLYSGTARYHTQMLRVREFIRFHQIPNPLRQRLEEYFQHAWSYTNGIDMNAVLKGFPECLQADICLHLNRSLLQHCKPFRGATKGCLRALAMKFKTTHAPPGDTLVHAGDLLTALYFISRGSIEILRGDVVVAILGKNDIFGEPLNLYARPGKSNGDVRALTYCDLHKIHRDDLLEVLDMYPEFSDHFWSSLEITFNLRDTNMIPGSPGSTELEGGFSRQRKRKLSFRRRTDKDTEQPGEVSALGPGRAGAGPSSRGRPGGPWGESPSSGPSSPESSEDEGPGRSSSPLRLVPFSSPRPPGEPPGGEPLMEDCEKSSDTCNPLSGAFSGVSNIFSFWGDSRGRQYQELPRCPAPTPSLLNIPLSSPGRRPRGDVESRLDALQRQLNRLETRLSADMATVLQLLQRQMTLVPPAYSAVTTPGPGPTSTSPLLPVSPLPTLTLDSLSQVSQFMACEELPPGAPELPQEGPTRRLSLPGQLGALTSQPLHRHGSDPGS

Compound | IC50
Clc1ccc(-n2c(-c3ccncc3)nc3ccncc32)cc1 [Example 2, 4-[3-(4-Chlorophenyl)-3H-imidazo[4,5-c]pyridin-2-yl] pyridine] | > 10000 nM
Clc1ccc(-n2c(-c3ccc(CN4CCOCC4)nc3)nc3ccncc32)cc1 [Example 3, 4-({5-[3-(4-Chlorophenyl)-3H-imidazo[4,5-c]pyridin-2-yl]pyridin-2-yl}methyl) morpholine] | > 10000 nM
Clc1ccc(-n2c(-c3ccc(N4CCOCC4)nn3)nc3ccncc32)cc1 [Example 4, 4-{6-[3-(4-Chlorophenyl)-3H-imidazo[4,5-c]pyridin-2-yl]pyridazin-3-yl}morpholine] | 1000 to 10000 nM
c1ccc(-n2c(-c3cnc(N4CCOCC4)nc3)cc3ccncc32)cc1 [Example 131, 4-(5-{1-Phenyl-1H-pyrrolo[2,3-c]pyridin-2-yl}pyrimidin-2-yl)morpholine] | 1000 to 10000 nM
